# From US20160355483A1, “COMPOUND BINDING TO PPARG BUT NOT ACTING AS PROMOTER AND PHARMACEUTICAL COMPOSITION FOR TREATING PPARG-RELATED DISEASES CONTAINING SAME AS ACTIVE INGREDIENT” (Hyundai Pharm Co., Ltd., priority 2014, published 2016)
# Molecular target: T1, PPARG (peroxisome proliferator activated receptor-gamma), GST-PPARG-LBD (Homo sapiens, UniProt P37231)
# T1 construct: 15 μL of 5 nM GST-PPARG-LBD and 5 nM Tb-GST-antibody were added; purchased Invitrogen PV4894
# T1 sequence (P37231 238-503 limits assumed): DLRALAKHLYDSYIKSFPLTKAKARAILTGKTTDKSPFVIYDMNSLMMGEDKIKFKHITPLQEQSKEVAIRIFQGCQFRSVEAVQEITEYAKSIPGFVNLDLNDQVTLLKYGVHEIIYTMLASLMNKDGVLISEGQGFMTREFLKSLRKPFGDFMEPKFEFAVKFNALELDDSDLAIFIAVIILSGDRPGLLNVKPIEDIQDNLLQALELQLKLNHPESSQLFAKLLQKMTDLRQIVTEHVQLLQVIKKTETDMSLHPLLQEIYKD
# Experiment: LanthaScreen TR-FRET PPARG Competitive Binding Assay
# Design: key: “+” indicates the degree of the binding activity, and as the number of “+” increases, the binding activity is stronger; ++: “+” indicates the degree of the binding activity, and as the number of “+” increases, the binding activity is stronger; +++: “+” indicates the degree of the binding activity, and as the number of “+” increases, the binding activity is stronger; ++++: “+” indicates the degree of the binding activity, and as the number of “+” increases, the binding activity is stronger
# Details: degree of binding activity
# Description: The following experiment was performed to evaluate the PPARG (peroxisome proliferator activated receptor-gamma) binding capacity and transcriptional activity of the compounds prepared in the examples of the invention. For the experiment, LanthaScreen™ TR-FRET PPARG Competitive Binding Assay Kit (PV4894, Invitrogen) was used according to the manufacturer's instruction. […] The mixture was loaded in a 384-well plate (Greiner, 784075) by 20 μL per well, followed by reaction at room temperature for 1 hour. Upon completion of the reaction, fluorescence value was measured by using Flexstation 3 (Molecular Devices) with time-resolved fluorescence (RFU) mode (excitation 1: 340 nm, emission 1: 518 nm, excitation 2: 340 nm, emission 2: 488 nm, integration delay 50 μs, integration 400 μs). The results were calculated by using 518 nm RFUs/488 nm RFUs ratio. The activity of the compounds of the invention was compared with that of the vehicle, which was calculated by ratio according to the formula [100%−compound of the example ratio/vehicle ratio]. At this time, the binding activity ratio to rosiglitazone was compared.
row,Binding assay (1 μLM),Structure (SMILES)
1,+,"O=C(NCc1ccncc1)c1ccc2c(c1)CCCN2Cc1ccc(-c2ccccc2C(=O)O)cc1 [Example 27, 4′-((6-((pyridine-4-ylmethyl)carbamoyl)-3,4-dihydroquinoline-1(2H)-yl)methyl)-[1,1′-biphenyl]-2-carboxylic acid]"
2,+++,"C[C@H](NC(=O)c1ccc2c(c1)CCCN2Cc1cccc(-c2ccccc2C(=O)O)c1F)c1ccccc1 [Example 126, (S)-2′-fluoro-3′-((6-((1-phenylethyl)carbamoyl)-3,4-dihydroquinoline-1(2H)-yl)methyl)-[1,1′-biphenyl]-2-carboxylic acid]"
3,+++,"COc1ccccc1[C@H](C)NC(=O)c1ccc2c(c1)CCCN2Cc1ccc(-c2ccccc2C(N)=O)cc1 [Example 41, (S)-1-((2′-carbamoyl-[1,1′-biphenyl]-4-yl)methyl)-N-(1-(2-methoxyphenyl)ethyl)-1,2,3,4-tetrahydroquinoline-6-carboxamide]"
4,++,"C[C@@H](NC(=O)c1ccc2c(c1)OCCN2Cc1ccc(-c2ccccc2C(N)=O)cc1)c1ccc(C#N)cc1 [Example 94, (R)-4-((2′-carbamoyl-[1,1′-biphenyl]-4-yl)methyl)-N-(1-(4-cyanophenyl)ethyl)-3,4-dihydro-2H-benzo[b][1,4]oxazine-7-carboxamide]"
5,+++,"C[C@H](NC(=O)c1ccc2c(c1)OCCN2Cc1ccc(-c2ccccc2C(=O)O)cc1)c1ccc(C(F)(F)F)cc1 [Example 76, (S)-4′-((7-((1-(4-(trifluoromethyl)phenyl)ethyl)carbamoyl)-2H-benzo[b][1,4]oxazine-4(3H)-yl)methyl)-[1,1′-biphenyl]-2-carboxylic acid]"
6,+++,"C[C@H](NC(=O)c1ccc2c(c1)CCCN2Cc1ccc(-c2ccccc2C(=O)O)cc1)c1ccc(F)cc1 [Example 6, (S)-4′-((6-((1-(4-fluorophenyl)ethyl)carbamoyl)-3,4-dihydroquinoline-1(2H)-yl)methyl)-[1,1′-biphenyl]-2-caboxylic acid]"
7,+++,"C[C@H](NC(=O)c1ccc2c(c1)OCCN2Cc1ccc(-c2ccccc2C(=O)O)cc1)c1ccc(SC(F)(F)F)cc1 [Example 77, (S)-4′-((7-((1-(4-((trifluoromethyl)thio)phenyl)ethyl)carbamoyl)-2H-benzo[b][1,4]oxazine-4(3H)-yl)methyl)-[1,1′-biphenyl]-2-carboxylic acid]"
8,+++,"NC(=O)c1ccccc1-c1ccc(CN2CCCc3cc(C(=O)NCc4ccccc4Br)ccc32)cc1 [Example 51, N-(2-bromobenzyl)-1-((2′-carbamoyl-[1,1′-biphenyl]-4-yl)methyl)-1,2,3,4-tetrahydroquinoline-6-carboxamide]"
9,++++,"C[C@H](NC(=O)c1ccc2c(c1)CCCN2Cc1cc(-c2ccccc2C(=O)O)ccc1F)c1ccccc1 [Example 134, (S)-4′-fluoro-3′-((6-((1-phenylethyl)carbamoyl)-3,4-dihydroquinoline-1(2H)-yl)methyl)-[1,1′-biphenyl]-2-carboxylic acid]"
10,+++,"C[C@H](NC(=O)c1ccc2c(c1)OCCN2Cc1ccccc1-c1ccc(C(N)=O)cc1)c1ccc2ccccc2c1 [Example 151, (S)-4-((4′-carbamoyl-[1,1′-biphenyl]-2-yl)methyl)-N-(1-(naphthalene-2-yl)ethyl)-3,4-dihydro-2H-benzo[b][1,4]oxazine-7-carboxamide]"
11,+++,"NC(=O)c1ccccc1-c1ccc(CN2CCCc3cc(C(=O)NCc4ccc(Br)cc4)ccc32)cc1 [Example 53, N-(4-bromobenzyl)-1-((2′-carbamoyl-[1,1′-biphenyl]-4-yl)methyl)-1,2,3,4-tetrahydroquinoline-6-carboxamide]"
12,++++,"C[C@H](NC(=O)c1ccc2c(c1)CCCN2Cc1cccc(-c2ccccc2C(=O)O)c1F)c1ccc2ccccc2c1 [Example 129, (S)-2′-fluoro-3′-((6-((1-(naphthalene-2-yl)ethyl)carbamoyl)-3,4-dihydroquinoline-1(28)-yl)methyl)-[1,1′-biphenyl]-2-carboxylic acid]"
13,+++,"O=C(NCc1ccccc1)c1ccc2c(c1)OCCN2Cc1ccc(-c2ccccc2C(=O)O)cc1 [Example 91, 4′-((7-(benzylcarbamoyl)-2H-benzo[b][1,4]oxazine-4(3H)-yl)methyl)-[1,1′-biphenyl]-2-carboxylic acid]"
14,+++,"C[C@H](NC(=O)c1ccc2c(c1)CCCN2Cc1ccc(-c2ccccc2C(=O)O)cc1)c1cccc(C(F)(F)F)c1 [Example 19, (S)-4′-((6-((1-(3-(trifluoromethyl)phenyl)ethyl)carbamoyl)-3,4-dihydroquinoline-1(2H)-yl)methyl)-[1,1′-biphenyl]-2-carboxylic acid]"
15,+++,"C[C@H](NC(=O)c1ccc2c(c1)CCCN2Cc1ccc(-c2ccccc2C(N)=O)cc1)c1ccccc1 [Example 2, (S)-1-((2′-carbamoyl-[1,1′-biphenyl]-4-yl)methyl)-N-(1-phenylethyl)-1,2,3,4-tetrahydroquinoline-6-carboxamide]"
16,++++,"C[C@H](NC(=O)c1ccc2c(c1)CCCN2Cc1ccc(-c2ccccc2C(=O)O)cc1)c1ccc2ccccc2c1 [Example 20, (S)-4′-((6-((1-(naphthalene-2-yl)ethyl)carbamoyl)-3,4-dihydroquinoline-1(2H)-yl)methyl)-[1,1′-biphenyl]-2-carboxylic acid]"
17,+++,"C[C@H](NC(=O)c1ccc2c(c1)CCCN2Cc1ccc(-c2ccccc2C(N)=O)cc1)c1cccc(OC(F)(F)F)c1 [Example 46, (S)-1-((2′-carbamoyl-[1,1′-biphenyl]-4-yl)methyl)-N-(1-(3-(trifluoromethoxy)phenyl)ethyl)-1,2,3,4-tetrahydroquinoline-6-carboxamide]"
18,+++,"C[C@H](NC(=O)c1ccc2c(c1)OCCN2Cc1ccc(-c2ccccc2C(=O)O)c(F)c1)c1ccccc1 [Example 162, (S)-2′-fluoro-4′-((7-((1-phenylethyl)carbamoyl)-2H-benzo[b][1,4]oxazine-4(3H)-yl)methyl)-[1,1′-biphenyl]-2-carboxylic acid]"
19,+++,"Cc1ccc([C@H](C)NC(=O)c2ccc3c(c2)CCCN3Cc2ccc(-c3ccccc3C(N)=O)cc2)cc1F [Example 49, (S)-1-((2′-carbamoyl-[1,1′-biphenyl]-4-yl)methyl)-N-(1-(3-fluoro-4-methylphenyl)ethyl)-1,2,3,4-tetrahydroquinoline-6-carboxamide]"
20,++,"Cc1cc(F)ccc1[C@H](C)NC(=O)c1ccc2c(c1)OCCN2Cc1ccc(-c2ccccc2C(=O)O)cc1 [Example 79, (S)-4′-((7-((1-(4-fluoro-2-methylphenyl)ethyl)carbamoyl)-2H-benzo[b][1,4]oxazine-4(3H)-yl)methyl)-[1,1′-biphenyl]-2-carboxylic acid]"
21,++++,"C[C@H](NC(=O)c1ccc2c(c1)CCCN2Cc1ccc(-c2ccccc2C(=O)O)cc1)c1ccc(C(F)(F)F)cc1 [Example 12, (S)-4′-((6-((1-(4-(trifluoromethyl)phenyl)ethyl)carbamoyl)-3,4-dihydroquinoline-1(2H)-yl)methyl)-[1,1′-biphenyl]-2-carboxylic acid]"
22,+++,"O=C(NCc1cccc(OC(F)(F)F)c1)c1ccc2c(c1)CCCN2Cc1ccc(-c2ccccc2C(=O)O)cc1 [Example 32, 4′-((6-((3-(trifluoromethoxy)benzyl)carbamoyl)-3,4-dihydroquinoline-1(2H)-yl)methyl)-[1,1′-biphenyl]-2-carboxylic acid]"
23,++,"Cc1ccc([C@H](C)NC(=O)c2ccc3c(c2)OCCN3Cc2ccc(-c3ccccc3C(=O)O)cc2)cc1F [Example 80, (S)-4′-((7-((1-(3-fluoro-4-methylphenyl)ethyl)carbamoyl)-2H-benzo[b][1,4]oxazine-4(3H)-yl)methyl)-[1,1′-biphenyl]-2-carboxylic acid]"
24,++++,"C[C@H](NC(=O)c1ccc2c(c1)CCCN2Cc1ccc(-c2ccccc2C(=O)O)cc1F)c1ccc2ccccc2c1 [Example 108, (S)-3′-fluoro-4′-((6-((1-(naphthalene-2-yl)ethyl)carbamoyl)-3,4-dihydroquinoline-1(28)-yl)methyl)-[1,1′-biphenyl]-2-carboxylic acid]"
25,+,"C[C@H](NC(=O)c1ccc2c(c1)OCCN2Cc1ccccc1-c1ccc(C(N)=O)cc1)c1ccc(C#N)cc1 [Example 149, (S)-4-((4′-carbamoyl-[1,1′-biphenyl]-2-yl)methyl)-N-(1-(4-cyanophenyl)ethyl)-3,4-dihydro-2H-benzo[b][1,4]oxazine-7-carboxamide]"
